According to PubChem BioAssay AID2305 (GlaxoSmithKline (GSK), 2010):

tested on: P. falciparum 3D7 growth, pLDH absorbance; assay: blood-stage malaria parasite growth potency – strain 3D7, dose response (AID 2305)

`Cc1cc(OCc2ccccc2)c(OCc2ccccc2)cc1C(O)CN(C)Cc1ccccc1` (stereo not given) and `COc1ccccc1CCNc1ncc(F)c(N[C@@H](Cc2ccccc2)C(=O)NCCc2ccccc2)n1` are within 1.5-fold of each other in IC50: 810 nM for the first, 960 nM for the second.

`CC(O)C1CCCCN1C(=O)c1cccc(-c2ccc(-c3nc4ccccc4[nH]3)s2)c1` (stereo not given) and `NCC1CCCN1Cc1cccc(-c2ccc(-c3nc4ccc(C(F)(F)F)cc4[nH]3)s2)c1` (stereo not given) are within 1.5-fold of each other in IC50: 800 nM for the first, 750 nM for the second.

First: c1cc(CNCCN2CCNCC2)cc(-c2ccc(-c3nc4ccccc4[nH]3)cc2)c1
Second: C=CCOC(=O)N1CCC(CNCc2cccc(-c3ccc(-c4nc5c(C)cccc5[nH]4)cc3)c2)C1 (stereo not given)
The IC50 of the first is 4.3-fold higher: 1080 nM for the first, 250 nM for the second.

`Cc1cc(C2CCN(CCCCNC(=O)c3ccc(-c4ccc(C(F)(F)F)cc4)cc3)CC2)c(C)cc1OCCOC1CCCCO1` (stereo not given) and `CC(C)c1ccc(NC(=O)c2ccc(C(=O)NCC3CCN(CC4CCCCC4)CC3)cc2)cc1` are within 1.5-fold of each other in IC50: 790 nM for the first, 900 nM for the second.

`CC(C)[C@H](NC(=O)c1ccc(O)c(-c2ccc(Cl)c(Cl)c2)c1)C(=O)NCCN1CCOCC1` and `O=C(Nc1cccc(F)c1)N[C@H]1CCN(CCCCCNC(=O)[C@@H]2C[C@H]2c2ccc(Cl)c(Cl)c2)C1` are within 1.5-fold of each other in IC50: 910 nM for the first, 990 nM for the second.

`NC(N)=NC(=O)Nc1cc(Br)c(Br)c(Br)c1` and `O=C(Nc1cc(Cl)cc(Cl)c1)Nc1ccnc2ccccc12` are within 1.5-fold of each other in IC50: 810 nM for the first, 750 nM for the second.

`CN(C)c1cccc(-c2cnc3ccc(NCc4cccc(Cl)c4)nn23)c1` and `CCC(C)NC(=O)Nc1cccc(-c2cccc(-c3nc4c(C)cccc4[nH]3)c2)c1` (stereo not given) are within 1.5-fold of each other in IC50: 700 nM for the first, 810 nM for the second.

Going from `O=C(/C=C/c1ccccc1Cl)Nc1ccc(Br)c(OCCN2CCCCC2)c1` to `CCOC(=O)c1c(CN2CCCC2)n(-c2ccccc2)c2cc(Br)c(O)cc12`, the IC50 rises from 170 nM to 1010 nM (5.9-fold).

`COc1cccc(C(=O)Nc2nonc2-c2ccc(OC)c(OC)c2)c1` and `COc1cc(Cc2cnc(N)nc2N)cc(OCc2cccc(C(=O)O)c2)c1OC` are within 1.5-fold of each other in IC50: 800 nM for the first, 830 nM for the second.

Compared with `OCCNc1nc(Nc2ccccc2)nc2ccccc12`, `COc1cc2nc(NCCc3ccccc3)nc(NC(C)c3ccccc3)c2cc1OC` (stereo not given) is 2.2-fold higher in IC50: 130 nM for the first, 280 nM for the second.

`COc1ccc2c(NN=Cc3cccnc3)cc(C)nc2c1` and `COc1ccc2nccc(NN=Cc3cccc(F)c3)c2c1` are within 1.5-fold of each other in IC50: 990 nM for the first, 750 nM for the second.

`O=C(NC1CCCCC1)N(Cc1ccc(-c2cccc(CNCc3ccc4c(c3)OCO4)c2)cc1)C1CCN(Cc2ccccc2)CC1` and `CN1CCN(CCCN(Cc2ccc(-c3cccc(CNCc4ccc5c(c4)OCO5)c3)cc2)C(=O)CCC2CCCC2)CC1` are within 1.5-fold of each other in IC50: 690 nM for the first, 1010 nM for the second.

`CC1CN(c2cc(=O)n(Cc3ccc(NC(=O)Nc4ccc(-c5ccccc5)cc4)cc3)cn2)CC(C)N1` (stereo not given) and `O=C(Nc1ccc(-c2ccccc2)cc1)Nc1cccc(Cn2cnc(N3CCCNCC3)cc2=O)c1` are within 1.5-fold of each other in IC50: 970 nM for the first, 1080 nM for the second.

`O=C(c1ccccc1F)N(Cc1ccc(Cl)cc1)c1ccccn1` and `Cc1[nH]c2ccccc2c(=O)c1-c1ccc(Cl)cc1` are within 1.5-fold of each other in IC50: 1020 nM for the first, 1000 nM for the second.

`CCc1ccc(S(=O)(=O)Nc2ccc(CCN(C)C3CCN(C)CC3)cc2)cc1` and `Cc1cc(-c2ccc(CNC3CCN(C)CC3)cc2)ccc1S(=O)(=O)NCc1ccccc1` are within 1.5-fold of each other in IC50: 1060 nM for the first, 850 nM for the second.

Compared with `Nc1ncnc2occ(-c3ccc(NC(=O)Nc4cc(C(F)(F)F)ccc4F)cc3)c12`, `Cn1nc(C(F)(F)F)c(-c2ccc(F)cc2)c1NC(=O)Nc1ccccc1` is 2.1-fold lower in IC50: 1720 nM for the first, 800 nM for the second.

`CCCCCCN1CCC(NCc2cccc(-n3ccnc3)c2)CC1` and `O=C(Nc1ccnc2ccccc12)NC1CCN(CCc2ccccc2)CC1` are within 1.5-fold of each other in IC50: 250 nM for the first, 360 nM for the second.

`C=CCOC(=O)N1CCC(CNCc2cccc(-c3ccc(-c4nc5ccc(C(F)(F)F)cc5[nH]4)cc3)c2)C1` (stereo not given) and `COc1ccccc1NC(=O)Nc1cccc(-c2cccc(-c3nc4ccc(C(F)(F)F)cc4[nH]3)c2)c1` are within 1.5-fold of each other in IC50: 150 nM for the first, 120 nM for the second.

`Cc1ccccc1C1CCN(c2ccc(C(=O)Nc3ccccc3)cn2)CC1` and `O=C(Nc1cccc(CN2CCN(C(=O)c3ccccc3)CC2)c1)c1cccs1` are within 1.5-fold of each other in IC50: 330 nM for the first, 310 nM for the second.

Going from `CCn1cc2c3c(cc(C(=O)N[C@@H](Cc4ccccc4)[C@H](O)CNC4CCOCC4)cc31)N(C)S(=O)(=O)CC2` to `CCOC(=O)c1ccc2nc(-c3ccc(C(=O)NC4CCN(Cc5ccccc5)CC4)s3)[nH]c2c1`, the IC50 rises from 210 nM to 740 nM (3.5-fold).

`COc1cc2nc(N3CCN(C(=O)c4ccc(N(C(=O)OC(C)(C)C)C(=O)OC(C)(C)C)cc4)CC3)nc(N)c2cc1OC` and `COc1ccc(-c2ccc(NC(=O)c3ccc(Cl)cc3)cc2)cc1CN1CCN(C)CC1` are within 1.5-fold of each other in IC50: 1000 nM for the first, 820 nM for the second.

`Cc1ccccc1Nc1cc(Nc2ccccc2C)c2ccccc2n1` and `c1ccc(Oc2ccc(Nc3ccnc(Nc4ccc(CN5CCOCC5)cc4)n3)cc2)cc1` are within 1.5-fold of each other in IC50: 780 nM for the first, 940 nM for the second.

`O=c1cc(NCCCNCc2cc(F)cc(C(F)(F)F)c2)[nH]c2ccccc12` and `O=C(N[C@@H](Cc1ccccc1)C(=O)NC1CCCc2ccccc21)c1ccc(O)c(-c2cccc(C(F)(F)F)c2)c1` (stereo not given in full) are within 1.5-fold of each other in IC50: 1200 nM for the first, 1000 nM for the second.

`CN1N=C2c3ccccc3CCC2C1c1ccc(C#N)cc1` (stereo not given) and `CC1(C)CN(CCC2CCC(NC(=O)/C=C/c3ccc(F)cc3F)CC2)Cc2ccc(C#N)cc21` (stereo not given) are within 1.5-fold of each other in IC50: 660 nM for the first, 790 nM for the second.

`O=C(Nc1ccc2c(c1)CCC2)c1cccc(CN2CCCN(Cc3cccc(O)c3)CC2)c1` and `O=C(Nc1cccc(-c2ccc(CN3CCCC3)cc2)c1)c1ccc(F)cc1` are the same in IC50: 1080 nM for the first, 1080 nM for the second.

`Cc1cc(O)c(CN(C)Cc2ccc3c(c2)OCO3)cc1C(C)C` and `Cc1cc(CN2CCCC(OC(c3ccc(F)cc3)c3ccc(F)cc3)C2)ccc1O` (stereo not given) are within 1.5-fold of each other in IC50: 740 nM for the first, 880 nM for the second.

Compared with `COc1cccc(NC(=O)Nc2ccc(C)c(-c3ccc(C(=O)Nc4ccncc4)cc3)c2)c1`, `CC(=O)c1ccc(NC(=O)Nc2ccc(N(C)c3ccnc(Nc4cccc(CS(C)(=O)=O)c4)n3)cc2)cc1` is 4.3-fold lower in IC50: 520 nM for the first, 120 nM for the second.

`CCCN(CCC)CCOc1ccc(C(O)(C#CC(O)(c2ccc(OCCN(CCC)CCC)cc2)c2cccc(Cl)c2)c2cccc(Cl)c2)cc1` (stereo not given) and `O=C(Cc1cccc(Cl)c1)Nc1cccc(-c2c[nH]c3nc(Nc4cccc(OCc5ccccc5)c4)ncc23)c1` are within 1.5-fold of each other in IC50: 790 nM for the first, 1040 nM for the second.

`COc1ccc(CNC2Cc3ccccc3C2)cc1-c1ccc(S(=O)(=O)NCCN2CCCC2)cc1` and `O=C(N[C@H]1CCN(Cc2ccc(OC3CCN(Cc4ccccc4)CC3)cc2)C1)c1ccc(Cl)c(Cl)c1` are within 1.5-fold of each other in IC50: 580 nM for the first, 730 nM for the second.

`O=C(/C=C/c1ccc(Cl)c(Cl)c1)NCCCCCN1C2CCC1CC(c1c[nH]c3ccccc13)C2` (stereo not given) and `CC1CCN(C(=O)[C@H](Cc2c[nH]c3ccccc23)NS(=O)(=O)c2ccc(Cl)cc2)CC1` are within 1.5-fold of each other in IC50: 840 nM for the first, 670 nM for the second.

Compared with `NCc1cccc(-c2ccc3ccnc(N)c3c2)c1`, `Cc1[nH]nc2cc(Nc3ccnc(Nc4ccc(CN5CCOCC5)cc4)n3)ccc12` is 5.6-fold higher in IC50: 170 nM for the first, 950 nM for the second.

Compared with `O=C(NCc1ccc(C(F)(F)F)cc1)c1cccc(-c2nnc(-c3cccc(-c4cncnc4)c3)o2)c1`, `CC1CN(c2ccc(NC(=O)c3ccc(F)cc3)cc2)CCN1Cc1cccc(F)c1` (stereo not given) is 2.5-fold higher in IC50: 540 nM for the first, 1350 nM for the second.

`CC(C)CC(=O)NC1CCN(Cc2c(-c3cccs3)nc3ccccc3c2C(=O)N[C@@H](C)C2CCCCC2)CC1` and `Cc1noc(C)c1CN1CCCN(c2ccc3c(c2)CCN(Cc2ccc(-c4ncc[nH]4)cc2)CC3)CC1` are within 1.5-fold of each other in IC50: 820 nM for the first, 860 nM for the second.

First: O=C(C=Cc1cccs1)N(CCCn1ccnc1)c1nc2ccc(F)cc2s1
Second: COc1ccc(Nc2nc(C)cc(NCc3ccc(-c4c(C)noc4C)cc3)n2)cc1
The IC50 of the first is 1.9-fold higher: 1600 nM for the first, 840 nM for the second.

First: CCOC(=O)c1c(C)noc1Nc1cccc(C)c1C
Second: CCCCCCCCc1c(C)[nH]c(C)c(Br)c1=O
The IC50 of the first is 2-fold lower: 420 nM for the first, 820 nM for the second. The first is the more potent here.
